Test results: patent US20160128338A1, “COMPOSITION AND METHODS FOR IMPROVED TURF HEALTH” (Valent U.S.A., Corporation, priority 2014, published 2016)

Key:
creeping bentgrass = test: Turf quality rating of creeping bentgrass fairways with dollar spot, field plots (scale 1-9); type: in vivo, creeping bentgrass (Agrostis stolonifera); conditions: Plot 2, Metconazole 0.14 oz ai/1000 sq ft
Source text: (§1) In order to determine the efficacy of combinations of metconazole and Myrothecium verucaria fermentation solids and solubles, numerous treatments were applied to plots in an area of turf grass. Specifically, the plots had established creeping bentgrass growing. No weed infestation was observed. Each plot was 30 square feet and the treatments were done in four replications. A randomized control was included in each block. The plots were no-till golf fairways. The treatments were applied during times of heat stress and also during times when no heat stress was present. The treatment solutions were prepared by pouring the liquid and dispersible granules in water and mixing. Treatments were applied to the turf grass at a volume of 2 gallons (256 liquid ounces)/1000 ft^2 with a CO2 backpack sprayer at 34 psi with a ground speed of 1 mph. The plots received six applications on 22 May, 6 June, 19 June, 4 July, 17 July, and 14 August. The turf grass was evaluated approximately every 7 days. Effect of Metconazole and Myrothecium verucaria fermentation solids and solubles on Dollar Spot on Creeping Bentgrass Fairways (% Damage)” and “Table 2. Effect of Metconazole and Myrothecium verucaria fermentation solids and solubles on Dollar Spot on Creeping Bentgrass Fairways (Quality Rating Based on a Scale of 1-9)”.

[1] = system: Dollar spot (Sclerotinia homoeocarpa); test: Dollar spot on creeping bentgrass fairways, field plots (% damage); type: in vivo; conditions: Plot 2, Metconazole 0.14 oz ai/1000 sq ft
Source text: as §1

CC1(C)CCC(Cc2ccc(Cl)cc2)C1(O)Cn1cncn1 (centres unmarked) [Metconazole, 5-[(4-chlorophenyl)methyl]-2,2-dimetyl-1-(1 H-1,2,4-triazol-1-ylmethyl)cyclopentanol]
Quality Rating Based on a Scale of 1-9 (creeping bentgrass; 3 July): 4.5 | Quality Rating Based on a Scale of 1-9 (creeping bentgrass; 7 Aug): 4.8 | Quality Rating Based on a Scale of 1-9 (creeping bentgrass; 10 July): 3.8 | Quality Rating Based on a Scale of 1-9 (creeping bentgrass; 14 Aug): 4.0 | Quality Rating Based on a Scale of 1-9 (creeping bentgrass; 15 June): 6.0 | Quality Rating Based on a Scale of 1-9 (creeping bentgrass; 17 July): 3.5 | Quality Rating Based on a Scale of 1-9 (creeping bentgrass; 21 Aug): 4.3 | Quality Rating Based on a Scale of 1-9 (creeping bentgrass; 22 June): 5.5 | Quality Rating Based on a Scale of 1-9 (creeping bentgrass; 25 July): 4.8 | Quality Rating Based on a Scale of 1-9 (creeping bentgrass; 26 June): 5.5 | Quality Rating Based on a Scale of 1-9 (creeping bentgrass; 31 July): 4.8 | Dollar Spot % Damage ([1]; 3 July): 16.3% | Dollar Spot % Damage ([1]; 6 June): 8.8% | Dollar Spot % Damage ([1]; 7 Aug): 36.3% | Dollar Spot % Damage ([1]; 10 July): 32.5% | Dollar Spot % Damage ([1]; 14 Aug): 55.0% | Dollar Spot % Damage ([1]; 15 June): 7.5% | Dollar Spot % Damage ([1]; 17 July): 36.3% | Dollar Spot % Damage ([1]; 21 Aug): 37.5% | Dollar Spot % Damage ([1]; 22 June): 10.0% | Dollar Spot % Damage ([1]; 25 July): 24.3% | Dollar Spot % Damage ([1]; 26 June): 11.3% | Dollar Spot % Damage ([1]; 31 July): 31.3%
